Here are results for six compounds from patent publication US12358859B2, “Series of compounds for treatment of skin diseases and other conditions” (Unigen, Inc., priority 2018, dated 2025).

Read-outs that look alike come from different tables or passages of the source.

The subject of experiment [1] is murine melanoma cells B16-F1. Kind of experiment: Melanin production by murine melanoma cells B16-F1. The class given is cell-based. The note with it: Mus musculus, B16-F1, 1 nM α-MSH, 48 hours. As to the method: Selected compounds were then tested for the ability to suppress melanin production by the murine melanoma cells B16-F1 as detailed below.
Murine melanoma cells B16-F1 were purchased from the ATCC (Cat #CRL-6323). Cell Titer96 AqueousOne Solution was purchased from Promega (Cat #G3582). 0.2 μm pore size, low protein binding filters were purchased from PALL Life Sciences. (Cat #PN4454).
Alpha-MSH was purchased from the Sigma Aldrich (Cat #M4135-1MG). All tissue culture reagents were purchased from VWR (phenol-red-free DMEM, cat #12001-630, L-glutamine, cat #12001-698) and Fisher Scientific (Trypsin-EDTA, cat #25-200-056).
The B16-F1 cells were maintained in cell growth media (DMEM/High Glucose supplemented with glutamine, 10% fetal bovine serum, 50 units/ml penicillin, and 50 units/mL of streptomycin) at 37° C. in a humidified atmosphere of 95% air and 5% CO2.
All test compounds were initially dissolved in 100% DMSO at a concentration of 400 mM. Then, 6 μL of 400 mM test compounds were added to 1.2 mL of the cell growth media giving a final concentration of 2 mM for the test compound and concentration of 0.5% for DMSO. The compounds were centrifuged for 1 h at 20,000×g. Supernatants (1 mL) were collected and filtered through sterile 0.2 μm filters. The compounds were serially diluted in two-fold increments in the sterile cell growth media supplemented with 0.5% DMSO, thus keeping the concentration of DMSO constant for all samples. These serially diluted compounds were subsequently used as two-fold concentrated stock solutions in the melanin production and cell viability assays. Equal volumes of 2× compounds were mixed with media containing 2 nM α-MSH to give a final concentration of 1 nM α-MSH, 0.5% DMSO, and 1× concentration of test compounds.
B16-F1 cells were seeded into the wells of clear-bottom 24-well plates at 50,000 cells per well, in 0.5 mL of cell growth media. On the following day, 0.5 mL of freshly prepared test compounds containing α-MSH were added to the wells. The cells were maintained at 37° C. in a humidified atmosphere of 95% air and 5% CO2 for 48 hours. At the end of the incubation period, melanin-containing conditioned media was removed from the cells and transferred to another plate. To measure melanin content the light absorbance of conditioned media was taken at 492 nm using a TECAN Genios plate reader.
More than 90% percent of the melanin produced by cultured melanoma cells is found in extra-cellular media. Therefore, at the end of the experiment melanin-containing media was collected and relative amounts of melanin were determined by absorption at 492 nm. Viability of cells was determined by a commonly used colorimetric procedure that is based on conversion of the tetrazolium compounds to colored formazan products (using Promega's CellTiter96 AqueousOne assay). Dehydrogenase enzymes in metabolically active cells accomplish this conversion, and the amount of formazan product is directly proportional to the number of living cells in culture. Mean (n=2) absorption of wells containing no cells was subtracted as blanks. The results were computed as percent of wells that contained the cells but no test compounds.

In experiment [2] the target is T1, COX-2 (Homo sapiens, UniProt P35354).
T1 construct: purchased Cayman Chemical 701050
T1 sequence (P35354 18-604): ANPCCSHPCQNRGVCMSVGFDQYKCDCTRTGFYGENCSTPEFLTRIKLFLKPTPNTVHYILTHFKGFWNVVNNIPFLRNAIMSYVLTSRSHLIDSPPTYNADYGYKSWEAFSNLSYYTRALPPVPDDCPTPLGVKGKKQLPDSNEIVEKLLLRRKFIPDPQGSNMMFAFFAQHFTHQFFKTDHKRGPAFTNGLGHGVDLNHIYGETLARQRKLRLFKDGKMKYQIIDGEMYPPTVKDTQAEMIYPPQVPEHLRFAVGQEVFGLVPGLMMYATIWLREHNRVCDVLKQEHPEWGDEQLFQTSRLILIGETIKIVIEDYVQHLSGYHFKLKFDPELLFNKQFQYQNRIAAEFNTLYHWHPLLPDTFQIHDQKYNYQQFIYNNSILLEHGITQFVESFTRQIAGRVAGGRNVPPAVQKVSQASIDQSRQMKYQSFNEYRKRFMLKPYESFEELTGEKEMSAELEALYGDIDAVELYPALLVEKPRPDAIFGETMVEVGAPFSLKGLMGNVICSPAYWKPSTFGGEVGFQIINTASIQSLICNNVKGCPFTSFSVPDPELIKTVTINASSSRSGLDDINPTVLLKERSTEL
Kind of experiment: COX-2 enzymatic inhibition assay. Format: biochemical. The following applies: for IC50: read-out: Anti-inflammatory (IC50) COX-2. As to the method: In order to screen for compounds that inhibited COX-1 and Cox-2 activity, enzymatic inhibition assay kits were purchased from Cayman Chemical (cat #701050). Briefly, the compound being examined was treated against a fixed amount of COX-1 and COX-2 enzymes. A cleavable, peroxide chromophore was included in the assay to visualize the peroxidase activity of each enzyme in presence of arachidonic acid as […]. Typically, assays were performed in 96-well format. Each inhibitor, taken from a 1 M stock solution in 100% DMSO, was tested in duplicate at room temperature using the following range of concentrations: 1.9, 3.9, 7.8, 15.6, 31.2, 62.5, 125, 250, 500, and 1000 μM. To each well, 150 μL of Assay Buffer was added along with 10 μL of Hemin, 10 μL of inhibitor diluted in DMSO and 10 μL of either COX-1 or COX-2 enzyme. The compounds were incubated for 5 minutes at room temperature, followed by the addition of 20 μL of Colormietric Substrate solution and 20 μL of arachidonic acid solution to initiate the reaction. The plate was mixed and incubated for 2 minutes before reading the absorbance at 590 nm. The inhibitor concentration vs. % of inhibition was plotted and the IC50 determined.

Experiment [3] in a line: ORAC 5.0 antioxidant capacity. The note with it: Trolox reference standard. The text has this:
Table 5 lists representative novel 1,6-dienes analogs of Formula I-III which are useful as anti-oxidant. ORAC 5.0 consists of five types of ORAC assays that evaluate the antioxidant capacity of material against five primary reactive oxygen species (ROSs, commonly called “oxygen radicals”) found in humans: peroxyl radical, hydroxyl radical, superoxide anion, singlet oxygen, and […]. Trolox is used as reference standard, and the results are expressed as μ mole Trolex equivalency per gram (or milliliter) of a tested material.

[4] abbreviates: FIGS. 2-8, read-out: IC50, inhibition in the production of melanin.
Where [5] appears, read: Tables 1-3, read-out: MELANIN PRODUCTION

`CC(C)=CCCC(C)=Cc1ccc(O)cc1` (mixture of isomers) [Compound 1, (E/Z)-4-(2,6-dimethylhepta-1,5-dienyl)phenol]: the IC50 in experiment [1] (setting [4]) and in experiment [1] (setting [5]) was 158 µM each time. Besides, in experiment [2], the “Anti-inflammatory (IC50) COX-2” value is “Not active”.
On to `CC(C)=CCC/C(C)=C/c1cc(O)cc(O)c1` [Compound 4, (E/Z)-5-(2,6-dimethylhepta-1,5-dienyl)benzene-1,3-diol], for which the IC50 is 72 µM in experiment [1] (setting [4]), 72 µM in experiment [1] (setting [5]) and 245 µM in experiment [2]. Besides, the ORAC in experiment [3] was determined as 22580 μ mole TE/gram.
As to `CC(C)=CCCC(C)/C=C/c1ccc(O)cc1` (stereo not shown) [Compound 5, (E)-4-(3,7-dimethylocta-1,6-dienyl)phenol], the IC50 in experiment [1] (setting [5]) and in experiment [2] was 72 µM each time. The compound further gave an ORAC in experiment [3] of 37643 μ mole TE/gram.
Turning to `CC(C)=CCCC(C)/C=C/c1ccc(O)cc1O` (stereo not shown) [Compound 6, (E)-4-(3,7-dimethylocta-1,6-dienyl) benzene-1,3-diol], the IC50 in experiment [1] (setting [4]) was found to be 9 µM; in experiment [1] (setting [5]) it was 9 µM; in experiment [2] it was 164 µM. Also, in experiment [3], the ORAC is 45869 μ mole TE/gram.
`CC(C)=CCCC(C)/C=C/c1cc(O)cc(O)c1` (stereo not shown) [Compound 7, (E)-5-(3,7-dimethylocta-1,6-dienyl) benzene-1,3-diol]: the IC50 was determined as 97 µM in experiment [1] (setting [4]), 97 µM in experiment [1] (setting [5]) and 135 µM in experiment [2]. The same compound showed an ORAC in experiment [3] of 18196 μ mole TE/gram.
Take `CC(C)=CCCC(C)C/C=C\c1cc(O)cc(O)c1` (stereo not shown) [Compound 15, (Z)-5-(4,8-dimethylnona-1,7-dienyl) benzene-1,3-diol]: the IC50 in experiment [1] (setting [4]) was determined as 74 µM; in experiment [1] (setting [5]), 158 µM. Moreover, in experiment [2], the “Anti-inflammatory (IC50) COX-2” value is “No Inhibition”. The compound also displayed an ORAC in experiment [3] of 11951 μ mole TE/gram.
